Laboratory results taken from patent US10196442B2, “Methods of inhibiting growth of a colon cancer tumor in a subject by administering monoclonal antibodies to G protein-coupled receptor 49 (GPR49)” (Bionomics Inc., priority 2011, dated 2019).

What was measured:
[1] = test system: CT1 primary xenograft cells; test: CT1 primary xenograft, murine mAbs in combination with Irinotecan; type: in vivo, SCID beige female mice; conditions: Irinotecan 10 mg/kg IP once per day for the first 5 days
Protocol: Single agent in vivo efficacy of murine antibodies 14F7.1, 18G7.1, 5B10.1, 14A8.1, 1B3.5 was evaluated in a primary colon tumor xenograft model system using CT1 primary xenograft cells. CT1 is a primary colorectal (CRC) in vivo xenograft tumor established from a fresh CRC patient tumor sample. The mutational status was determined by Ion Torrent deep sequencing to identify oncogene mutations. Approximately 5-15% of CT1 tumors express GPR49. SCID beige female mice were inoculated with CT1 tumor cells and monitored for tumor growth. Mice were randomized at day 0 into groups of 10 when mean tumor volume reached 175 mm^3. Chemotherapeutic Irinotecan was administered IP at 10 mg/kg once per day for the first 5 days. The antibodies were administered intraperitoneally (i.p.) at 15 mg/kg administered twice weekly for 4 weeks. Tumors were measured at the indicated intervals post-inoculation for total tumor volume.

[2] = test system: colon tumor cells; test: Secondary transplant tumor formation after GPR49 mAb+irinotecan (Example 30); type: in vivo, mice; conditions: 140 day follow-up
Text: Isolated tumor cells from control or GPR49 mAb+irinotecan treated tumors from the in vivo study outlined in Example 3 were harvested, pooled, dissociated and re-implanted in a limiting dilution secondary transplant assay to measure cancer stem cell frequency. For each treatment group, 8 mice were implanted with 10, 30, 100 cells. […]

[3] = target: T1, GPR49 (Homo sapiens, UniProt O75473); test: Internalization of GPR49 in Lovo colon tumor cells (confocal); type: cell-based; conditions: 10 ug/ml, 37° C., 60 min
T1 construct: endogenous in cells; host or cells: Lovo colon tumor cells
T1 sequence (O75473 22-907): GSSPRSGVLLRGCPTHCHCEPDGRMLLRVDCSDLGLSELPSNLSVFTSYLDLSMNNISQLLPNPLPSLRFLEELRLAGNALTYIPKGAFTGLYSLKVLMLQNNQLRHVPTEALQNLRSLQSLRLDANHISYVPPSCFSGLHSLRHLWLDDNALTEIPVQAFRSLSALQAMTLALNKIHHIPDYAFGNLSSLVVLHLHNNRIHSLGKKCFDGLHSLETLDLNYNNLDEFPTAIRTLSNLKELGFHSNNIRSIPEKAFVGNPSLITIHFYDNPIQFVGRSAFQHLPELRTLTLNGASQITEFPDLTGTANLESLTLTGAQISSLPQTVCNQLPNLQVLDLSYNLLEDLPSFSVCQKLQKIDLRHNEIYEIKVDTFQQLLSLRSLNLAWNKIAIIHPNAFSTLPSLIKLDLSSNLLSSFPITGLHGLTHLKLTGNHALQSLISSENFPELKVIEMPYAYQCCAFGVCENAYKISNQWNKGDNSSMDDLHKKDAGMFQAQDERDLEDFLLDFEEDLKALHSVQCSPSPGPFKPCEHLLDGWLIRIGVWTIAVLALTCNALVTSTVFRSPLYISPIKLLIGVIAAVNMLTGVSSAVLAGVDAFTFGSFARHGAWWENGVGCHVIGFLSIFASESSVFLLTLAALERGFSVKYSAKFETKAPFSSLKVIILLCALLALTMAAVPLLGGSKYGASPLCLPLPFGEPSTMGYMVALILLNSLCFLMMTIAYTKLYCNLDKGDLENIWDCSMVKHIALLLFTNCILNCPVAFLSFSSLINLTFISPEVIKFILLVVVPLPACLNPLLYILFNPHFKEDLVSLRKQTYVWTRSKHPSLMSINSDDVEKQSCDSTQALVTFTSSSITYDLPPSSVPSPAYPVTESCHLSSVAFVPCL
Protocol: Methods: Lovo colon tumor cells were seeded at 50,000 cells per well into 8 well chamber slides (Becton Dickinson Collagen Type 1 coated culture slides, BD BioCoat™#354630) 48 hours prior to staining procedures. Cells were routinely maintained below 20 passages. On day of staining procedures, culture media was discarded from each well and replaced with 500 ul cold incubation buffer (MEM Eagle ATCC #30-2003+1% BSA). Cells were washed 2× with this buffer for 3 min each wash. 250 ul of each mAb (76C12, 78F05 and murine 10A9.2) to be tested was then added to the appropriate well at a concentration of 10 ug/ml, diluted in incubation media, and incubated on ice for 1 hour. A human anti-human-IGF-1R antibody was used as a positive control to compare degree of internalization. Antibody 5A7 (anti-Id mAb), IDEC152 (anti-CD23 IgG1 mAb) and no antibody were used as negative controls. After the 45 minutes incubation on ice, the time zero (1=0′) slide washed 3× with 500 ul of cold wash buffer (PBS+1% BSA+2% Goat serum) for 3 min each wash (slides always kept on ice). The t=0 slide was then fixed with 500 ul […] (diluted with PBS from 16% stock; EMS #15710) for 15 minutes at room temperature. The t=0 slide was then washed again 3× with cold wash buffer for 3 minutes each wash, then left on ice. […]

Molecule | tumor inhibition by Irinotecan alone [1] | average size of tumors ([2]; cells from irinotecan treated tumors) | mice with tumors ([2]; cells from pre-treated tumors) | internalization of GPR49 [3]
CCc1c2c(nc3ccc(OC(=O)N4CCC(N5CCCCC5)CC4)cc13)-c1cc3c(c(=O)n1C2)COC(=O)[C@]3(O)CC [Irinotecan] | 45% | 1729 mm^3 | 5/8 | –
IDEC152: primatized anti-CD23 IgG1 mAb, negative control | – | – | – | did not bind or internalize
